# Bridge positions count the residues as written; N and C are the ends. Square brackets hold non-standard residues; d marks the D form. S5 = C=CCCC[C@](C)(N)C(=O)O; Ae = not defined here
# Legend:
# [1] = test system: p53 wild-type HCT-116 colorectal carcinoma cells; assay: Cell-viability assay (CellTiter Glo), HCT-116 p53 wild-type; format: cell-based; conditions: 24-hour incubation
# Description: (§1) Both HCT-116 cell lines, i.e., HCT-116 p53 wild-type and HCT-116 p53 null, were obtained from Dr. Trudy Oliver (University of Utah). Cell lines were cultured in 10% FBS media (DMEM, Pen/Strep). Briefly. 20,000 cells/well in 1% FBS media were seeded in 96-well plates. After 24 hours, stapled peptides with various concentrations were added to each well. After another 24-hour incubation, media were aspirated and CellTiter Glo reagent was added according to the protocol from Promega. Luminescence signal was measured by automatic plate reader (BioTek Synergy Neo).
# [2] = test system: p53 wild-type HCT-116 colorectal carcinoma cells; conditions: F. Bernal et al., Cancer Cell 2010; cited from earlier work
# [3] = test system: p53-null HCT-116 colorectal carcinoma cells; assay: Cell-viability assay (CellTiter Glo), HCT-116 p53 null; format: cell-based; conditions: 24-hour incubation
# Description: as §1
# [4] = Circular dichroism (CD) evaluation of alpha helicity; format: physicochemical; conditions: in water, 25° C., 100 μM peptide
# Description: All CD spectra were recorded on an AVIV Model 410 spectrophotometer (AVIV) in water in a 1 mm QS quartz cuvette (Stama) at 25° C. Wavelength scans were performed at 1-nm resolution with 1-s averaging time. Data from double scans were averaged, blank subtracted, and normalized to mean residue ellipticity by the following equation; [θ]=100×θ/C×l×(n−1), where C is concentration of protein in mM, l is path length in centimeters, and n is the number of residues in the protein. The concentrations of the protein samples used for CD experiments were 100 μM. The percentage helicity was calculated from the […] at 222 nm using helical models as previously reported (Y. H. Chen, J. T. Yang, K. H. Chau. Biochemistry 1974, 13, 3350-3359).
# [5] = test system: p53-null HCT-116 colorectal carcinoma cells; conditions: F. Bernal et al., Cancer Cell 2010; cited from earlier work
# p53-MDM2 interaction = target: T1, p53-MDM2 interaction (Homo sapiens, UniProt Q00987); assay: ELISA assay for p53-MDM2 interactions; format: binding; conditions: 1-hour incubation with p53-MDM2 protein complexes
# T1 construct: purchased Enzo Life Sciences
# T1 sequence (Q00987 whole entry): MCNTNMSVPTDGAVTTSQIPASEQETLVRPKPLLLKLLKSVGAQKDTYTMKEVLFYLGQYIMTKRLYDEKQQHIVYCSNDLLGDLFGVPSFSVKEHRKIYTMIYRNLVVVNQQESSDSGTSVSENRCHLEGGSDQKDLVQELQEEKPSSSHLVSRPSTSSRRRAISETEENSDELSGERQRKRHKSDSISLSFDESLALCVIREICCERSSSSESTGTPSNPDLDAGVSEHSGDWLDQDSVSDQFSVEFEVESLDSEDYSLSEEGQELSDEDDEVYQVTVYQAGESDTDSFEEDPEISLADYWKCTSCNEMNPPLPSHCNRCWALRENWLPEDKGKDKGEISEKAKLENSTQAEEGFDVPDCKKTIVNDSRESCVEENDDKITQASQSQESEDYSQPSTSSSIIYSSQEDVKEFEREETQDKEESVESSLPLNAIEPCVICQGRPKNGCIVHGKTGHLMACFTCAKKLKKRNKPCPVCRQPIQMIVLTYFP
# Description: The ELISA kit was purchased from Enzo Life Sciences (New York, USA). TMB substrate was purchased from Cell Signaling Technology (Massachusetts. USA). The assay was performed according to the manufacture's protocol. Briefly, p53 antibody was coated on a 96-well plate overnight. After the coating, peptides and p53-MDM2 protein complexes were diluted in assay buffer and added to the wells. After 1-hour incubation, all wells were washed and detection antibody was added. After another 1-hour incubation, SA-HRP was added and incubated for 30 minutes before TMB substrate was added. 1N HCl was then added to stop the color development and the signal was measure using automatic plate reader (BioTek Synergy Neo).
substance,measurement,setting,value
Ac-Gln-Ser-Gln-Gln-Thr-Phe-R8-Asn-Leu-Trp-Arg-Leu-Leu-S5-Gln-Asn-NH2 [Peptide 12],induction of apoptosis / cell viability in p53 wild-type cells,[1],induction of apoptosis in p53 wild-type cells
same,induction of cell apoptosis in p53 wild-type cells (previously reported),[2],selectively induces cell apoptosis in p53 wild-type cells
same,induction of apoptosis / cell viability in p53 null cells,[3],not p53 null cells
same,alpha helicity (CD spectra),[4],significant increase of alpha helicity compared to the unstapled peptide 13
same,induction of cell apoptosis in p53 null cells (previously reported),[5],not p53 null cells
Ac-Glu-Asn-Pro-GLu-S5-Ile-Leu-Asp-S5-His-Val-Gln-Arg-Val-Met-NH2 (Ac-ENPE[S5]ILD[S5]HVQRVM-NH2; staple 5-9; SMILES CC[C@H](C)[C@@H]1NC(=O)[C@@](C)(NC(=O)[C@H](CCC(=O)O)NC(=O)[C@@H]2CCCN2C(=O)[C@H](CC(N)=O)NC(=O)[C@H](CCC(=O)O)NC(C)=O)CCCC=CCCC[C@@](C)(C(=O)N[C@@H](Cc2c[nH]cn2)C(=O)N[C@H](C(=O)N[C@@H](CCC(N)=O)C(=O)N[C@@H](CCCNC(=N)N)C(=O)N[C@H](C(=O)N[C@@H](CCSC)C(N)=O)C(C)C)C(C)C)NC(=O)[C@H](CC(=O)O)NC(=O)[C@H](CC(C)C)NC1=O) [Peptide 9],alpha helicity (CD spectra),[4],strong alpha-helical characteristics
"Ac-Glu-Asn-Pro-Glu-Cys-Ile-Leu-Asp-Cys-His-Val-Gln-Arg-Val-Met-NH2 (Ac-ENPECILDCHVQRVM-NH2; cysteine pairing not given here) [Peptide 10, unstapled axin homologue with 2 Cys residues]",alpha helicity (CD spectra),[4],low alpha-helical property
"Ae-Gln-Ser-Gln-Gln-Thr-Phe-Cys-Asn-Leu-Trp-Arg-Leu-Leu-Cys-Gln-Asn-NH2 (Ae-QSQQTFCNLWRLLCQN-NH2; not fully specified; printed as Ae-Gln-Ser-Gln-Gln-Thr-Phe-Cys-Asn-Leu-Trp-Arg-Leu-Leu-Cys-Gln-Asn-NH2; cysteine pairing not given here; reading uncertain) [Peptide 13, unstapled p53 homologue with 2 Cys residues]",blocking of the p53-MDM2 interaction,p53-MDM2 interaction,did not block the p53-MDM2 interaction

# Reference: patent publication US11155577B2, “Thiol-ene based peptide stapling and uses thereof” (University of Utah Research Foundation, priority 2015, dated 2021)
